Experimental data reported in patent publication US20250135006A1, “AMPHIPHILIC TLR7/8 ADJUVANTS AND USES THEREOF” (Pfizer Inc., priority 2023, published 2025).

Legend:
[1] = target: T1, human toll like receptor 7 (hTLR7) (Homo sapiens, UniProt Q9NYK1); test: hTLR7 in-vitro functional assay (HEK-Blue hTLR7 SEAP reporter); assay type: cell-based; conditions: HEK-Blue hTLR7 cells, overnight incubation
T1 construct: host or cells: HEK293 (HEK-Blue hTLR7)
T1 sequence (Q9NYK1 27-1049): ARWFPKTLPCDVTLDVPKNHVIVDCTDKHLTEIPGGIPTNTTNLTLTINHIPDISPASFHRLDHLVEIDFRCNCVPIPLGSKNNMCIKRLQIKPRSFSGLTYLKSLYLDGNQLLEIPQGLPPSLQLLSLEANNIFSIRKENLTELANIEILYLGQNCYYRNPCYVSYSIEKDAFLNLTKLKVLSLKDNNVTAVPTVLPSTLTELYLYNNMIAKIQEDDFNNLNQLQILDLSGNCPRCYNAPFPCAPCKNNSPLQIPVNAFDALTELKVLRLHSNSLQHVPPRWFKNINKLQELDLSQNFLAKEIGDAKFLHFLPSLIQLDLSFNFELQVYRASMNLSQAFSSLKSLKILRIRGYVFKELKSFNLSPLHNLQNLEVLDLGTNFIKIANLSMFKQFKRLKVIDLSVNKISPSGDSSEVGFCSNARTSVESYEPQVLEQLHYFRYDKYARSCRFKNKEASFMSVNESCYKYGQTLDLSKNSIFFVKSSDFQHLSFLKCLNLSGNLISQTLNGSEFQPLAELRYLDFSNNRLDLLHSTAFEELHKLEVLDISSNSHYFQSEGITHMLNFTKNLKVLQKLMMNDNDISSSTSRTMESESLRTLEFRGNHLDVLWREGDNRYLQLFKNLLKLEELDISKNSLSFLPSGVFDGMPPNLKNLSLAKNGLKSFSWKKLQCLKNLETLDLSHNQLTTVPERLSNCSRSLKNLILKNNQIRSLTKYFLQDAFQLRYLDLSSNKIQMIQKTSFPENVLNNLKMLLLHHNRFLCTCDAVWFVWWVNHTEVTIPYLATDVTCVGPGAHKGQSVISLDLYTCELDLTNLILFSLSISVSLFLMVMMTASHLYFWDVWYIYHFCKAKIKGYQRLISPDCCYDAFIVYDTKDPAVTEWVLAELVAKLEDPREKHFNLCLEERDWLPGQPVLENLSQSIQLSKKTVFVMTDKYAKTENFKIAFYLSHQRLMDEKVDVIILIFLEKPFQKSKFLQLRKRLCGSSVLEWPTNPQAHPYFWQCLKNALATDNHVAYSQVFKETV
Source text: (§1) To determine the ability of test compounds to activate the human toll like receptor 7 (hTLR7) or human toll like receptor 8 (hTLR8), cell-based reporter systems were utilized. HEK293 cells stably overexpressing either hTLR7 or hTLR8 along with a reporter gene containing an optimized secreted embryonic alkaline phosphatase gene (SEAP), under the control of the IFN-b minimal promoter fused to five NF-kB and AP-1-binding sites, were obtained from Invivogen (HEK-Blue™ hTLR7, cat #Hkb-htlr7; HEK-Blue™ hTLR8, cat #Hkb-htlr8). Stimulation of hTLR7 or hTLR8 in these cells activates NF-kB and AP-1 and induces the production of SEAP which can be quantified using an alkaline phosphatase detection reagent.
(§2) On day one of the assay, compounds were prepared using 11-point half-log serial dilutions from a 10 mM DMSO stock solution and 50 nL was spotted into 384-well plates (PerkinElmer, cat #6007480). Positive and negative controls were also spotted within the assay plate and were used to determine percent effect during the analysis process. After resuspension in DMEM assay media containing FBS heat inactivated (10%), Glutamax (2 mM) and Penicillin/Streptomycin, 10,000 cells/20 ul/well were added to previously prepared compound plates. Plates were incubated overnight (16-20 hrs) at 37° C. in a 5% CO2 environment. Prewetted Microclime lids (Labcyte, LLS-0310) were used to prevent evaporation. On day two of the assay, QUANTI-Blue™ detection reagent was prepared by reconstituting QUANTI-Blue™ powder (InvivoGen, Rep-qb1) with 100 ml of sterile water and allowed to equilibrate to 37° C. for 15 minutes. 20 ul of QUANTI-Blue™ detection reagent was added to each well and plates were incubated at room temperature for 180 min. At the end of the incubation, plates were read on an Envision (Perkin Elmer) plate reader capturing absorbance at 650 nm.
(§3) Using Positive (tool compound) and Negative (DMSO) controls, the percent (%) effect was calculated for each sample using the following equation: […]
(§4) The % effect at each concentration of compound was calculated utilizing the ABase software suite (IBDS) and was relative to the amount of SEAP produced in the positive and negative control wells contained within each assay plate. The concentrations and % effect values for test compounds were fit using a 4-parameter logistic model in ABase and the concentration of compound that produced 50% response (EC50) was calculated.

[2] = target: T2, human toll like receptor 8 (hTLR8) (Homo sapiens, UniProt Q9NR97); test: hTLR8 in-vitro functional assay (HEK-Blue hTLR8 SEAP reporter); assay type: cell-based; conditions: HEK-Blue hTLR8 cells, overnight incubation
T2 construct: host or cells: HEK293 (HEK-Blue hTLR8)
T2 sequence (Q9NR97 27-1041): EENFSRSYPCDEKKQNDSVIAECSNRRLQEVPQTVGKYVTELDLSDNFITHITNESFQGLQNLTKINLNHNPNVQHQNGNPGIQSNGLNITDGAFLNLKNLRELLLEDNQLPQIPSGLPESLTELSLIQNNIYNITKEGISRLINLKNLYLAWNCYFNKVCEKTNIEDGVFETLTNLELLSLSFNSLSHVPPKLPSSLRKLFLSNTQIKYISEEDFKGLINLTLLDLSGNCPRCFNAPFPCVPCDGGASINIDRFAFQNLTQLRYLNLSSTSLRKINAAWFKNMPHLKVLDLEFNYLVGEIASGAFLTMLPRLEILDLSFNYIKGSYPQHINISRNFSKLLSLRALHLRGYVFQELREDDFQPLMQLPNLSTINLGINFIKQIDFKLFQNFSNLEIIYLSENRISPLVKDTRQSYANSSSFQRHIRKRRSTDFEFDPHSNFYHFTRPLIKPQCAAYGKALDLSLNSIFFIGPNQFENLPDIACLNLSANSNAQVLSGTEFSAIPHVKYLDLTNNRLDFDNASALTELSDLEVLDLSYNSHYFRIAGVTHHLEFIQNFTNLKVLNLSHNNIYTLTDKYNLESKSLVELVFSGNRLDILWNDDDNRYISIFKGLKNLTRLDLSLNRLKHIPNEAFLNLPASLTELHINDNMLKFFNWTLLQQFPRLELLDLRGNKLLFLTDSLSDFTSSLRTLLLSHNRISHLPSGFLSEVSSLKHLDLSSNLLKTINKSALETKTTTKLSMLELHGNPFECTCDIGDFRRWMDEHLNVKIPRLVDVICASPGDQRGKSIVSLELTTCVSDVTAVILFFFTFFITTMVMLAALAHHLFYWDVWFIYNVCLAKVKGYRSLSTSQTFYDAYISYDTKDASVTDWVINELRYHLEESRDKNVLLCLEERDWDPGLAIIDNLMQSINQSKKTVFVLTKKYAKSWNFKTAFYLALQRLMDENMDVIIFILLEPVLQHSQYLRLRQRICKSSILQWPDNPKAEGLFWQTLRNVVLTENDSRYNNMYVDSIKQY
Source text: as §1, §2, §3, §4

**Q.** With CCCCc1nc2c(N)nc3cc(CCCN4CCN(Cc5ccc(NC(=O)[C@H](CCCNC(N)=O)NC(=O)[C@@H](NC(=O)COCCOCCNC(=O)O[C@H]6CC[C@@]7(C)C(=CC[C@H]8[C@@H]9CC[C@H]([C@H](C)CCCC(C)C)[C@@]9(C)CC[C@@H]87)C6)C(C)C)cc5)CC4)ccc3c2n1CC(C)(CO)CO [Compound 29, (3beta)-cholest-5-en-3-yl ((6S,9S)-1-amino-6-((4-((4-(3-(4-amino-2-butyl-1-(3-hydroxy-2-(hydroxymethyl)-2-methylpropyl)-1H-imidazo[4,5-c]quinolin-7-yl)propyl)piperazin-1-yl)methyl)phenyl)carbamoyl)-9-isopropyl-1,8,11-trioxo-13,16-dioxa-2,7,10-triazaoctadecan-18-yl)carbamate] as the compound, how does the EC50 [1] read?
**A.** 0.527 µM

**Q.** And the EC50 [2]?
**A.** 5.03 µM

**Q.** Which results are given for CCCCc1nc2c(N)nc3cc(CCCN4CCN(CCCOCCOCCOCCOCCOCCOCCOCCOCCNC(=O)O[C@H]5CC[C@@]6(C)C(=CC[C@H]7[C@@H]8CC[C@H]([C@H](C)CCCC(C)C)[C@@]8(C)CC[C@@H]76)C5)CC4)ccc3c2n1CC(C)(CO)CO [Compound 23, (20R)-cholest-5-en-3beta-yl {27-[4-(3-{4-amino-2-butyl-1-[3-hydroxy-2-(hydroxymethyl)-2-methylpropyl]-1H-imidazo[4,5-c]quinolin-7-yl}propyl)piperazin-1-yl]-3,6,9,12,15,18,21,24-octaoxaheptacosan-1-yl}carbamate]?
**A.** EC50 [1]: 1.68 µM; EC50 [2]: 14.9 µM

**Q.** For CCCCc1nc2c(N)nc3cc(CCCN4CCN(C(=O)CCOCCOCCOCCOCCOCCOCCOCCOCCOCCOCCOCCOCCOCCOCCOCCOCCOCCOCCOCCOCCOCCOCCOCCOCCNC(=O)O[C@H]5CC[C@@]6(C)C(=CC[C@H]7[C@@H]8CC[C@H]([C@H](C)CCCC(C)C)[C@@]8(C)CC[C@@H]76)C5)CC4)ccc3c2n1CC(C)(CO)CO [Compound 9, (3beta)-cholest-5-en-3-yl {75-[4-(3-{4-amino-2-butyl-1-[3-hydroxy-2-(hydroxymethyl)-2-methylpropyl]-1H-imidazo[4,5-c]quinolin-7-yl}propyl)piperazin-1-yl]-75-oxo-3,6,9,12,15,18,21,24,27,30,33,36,39,42,45,48,51,54,57,60,63,66,69,72-tetracosaoxapentaheptacont-1-yl}carbamate], which EC50 [1] is on record?
**A.** 0.181 µM

**Q.** What about the EC50 [2] of the same compound?
**A.** 16 µM

**Q.** With CCCCc1nc2c(N)nc3cc(CCCN4CCN(C(=O)CCOCCOCCOCCOCCOCCOCCOCCOCCOCCOCCOCCOCCNC(=O)CCOCCOCCOCCOCCNC(=O)O[C@H]5CC[C@@]6(C)C(=CC[C@H]7[C@@H]8CC[C@H]([C@H](C)CCCC(C)C)[C@@]8(C)CC[C@@H]76)C5)CC4)ccc3c2n1CC(C)(CO)CO [Compound 6, (3beta,20R)-cholest-5-en-3-yl {55-[4-(3-{4-amino-2-butyl-1-[3-hydroxy-2-(hydroxymethyl)-2-methylpropyl]-1H-imidazo[4,5-c]quinolin-7-yl}propyl)piperazin-1-yl]-15,55-dioxo-3,6,9,12,19,22,25,28,31,34,37,40,43,46,49,52-hexadecaoxa-16-azapentapentacont-1-yl}carbamate] as the compound, how does the EC50 [1] read?
**A.** 0.078 µM

**Q.** And the EC50 [2]?
**A.** 5.08 µM

**Q.** With CCCCc1nc2c(N)nc3cc(CCCN4CCN(CCCOCCOCCOCCOCCOCCOCCOCCOCCOCCOCCOCCOCCOCCOCCOCCOCCNC(=O)O[C@H]5CC[C@@]6(C)C(=CC[C@H]7[C@@H]8CC[C@H]([C@H](C)CCCC(C)C)[C@@]8(C)CC[C@@H]76)C5)CC4)ccc3c2n1CC(C)(CO)CO [Compound 14, (3beta,20R)-cholest-5-en-3-yl {51-[4-(3-{4-amino-2-butyl-1-[3-hydroxy-2-(hydroxymethyl)-2-methylpropyl]-1H-imidazo[4,5-c]quinolin-7-yl}propyl)piperazin-1-yl]-3,6,9,12,15,18,21,24,27,30,33,36,39,42,45,48-hexadecaoxahenpentacont-1-yl}carbamate] as the compound, how does the EC50 [1] read?
**A.** 0.236 µM

**Q.** And the EC50 [2]?
**A.** 22.6 µM

**Q.** What does the source list for CCCCc1nc2c(N)nc3cc(CCCN4CCN(C(=O)CCOCCOCCOCCOCCNC(=O)O[C@H]5CC[C@@]6(C)C(=CC[C@H]7[C@@H]8CC[C@H]([C@H](C)CCCC(C)C)[C@@]8(C)CC[C@@H]76)C5)CC4)ccc3c2n1CC(C)(CO)CO [Compound 12, (3beta,20R)-cholest-5-en-3-yl {15-[4-(3-{4-amino-2-butyl-1-[3-hydroxy-2-(hydroxymethyl)-2-methylpropyl]-1H-imidazo[4,5-c]quinolin-7-yl}propyl)piperazin-1-yl]-15-oxo-3,6,9,12-tetraoxapentadec-1-yl}carbamate]?
**A.** EC50 [1]: 0.21 µM; EC50 [2]: 19.6 µM

**Q.** What does the source list for CCCCc1nc2c(N)nc3cc(CCCN4CCN(C(=O)CCOCCOCCOCCOCCOCCOCCOCCOCCOCCOCCOCCOCCOCCOCCOCCOCCOCCOCCOCCOCCOCCOCCOCCOCCOCCOCCOCCOCCOCCOCCOCCOCCOCCOCCOCCOCCNC(=O)CCOCCOCCOCCOCCNC(=O)O[C@H]5CC[C@@]6(C)C(=CC[C@H]7[C@@H]8CC[C@H]([C@H](C)CCCC(C)C)[C@@]8(C)CC[C@@H]76)C5)CC4)ccc3c2n1CC(C)(CO)CO [Compound 3, (3beta)-cholest-5-en-3-yl {127-[4-(3-{4-amino-2-butyl-1-[3-hydroxy-2-(hydroxymethyl)-2-methylpropyl]-1H-imidazo[4,5-c]quinolin-7-yl}propyl)piperazin-1-yl]-15,127-dioxo-3,6,9,12,19,22,25,28,31,34,37,40,43,46,49,52,55,58,61,64,67,70,73,76,79,82,85,88,91,94,97,100,103,106,109,112,115,118,121,124-tetracontaoxa-16-azaheptacosahect-1-yl}carbamate]?
**A.** EC50 [1]: 0.053 µM; EC50 [2]: 0.339 µM
